Source: PubChem BioAssay AID328 (DTP/NCI, 2004)
Toxic doses and inconclusive results are not listed.

Legend:
[1] = test system: BDF1 mice, P388 leukemia ip; assay: NCI In Vivo Anticancer Drug Screen. Data for tumor model P388 Leukemia (intraperitoneal) in B6D2F1 (BDF1) mice; conditions: endpoint: mean survival time, schedule: Q01DX009 (ip), vehicle: water, higher = longer survival
Outline: (§1)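 Vehicle-dosed animals serve as the reference; survival of compound-dosed, tumour-implanted mice is divided by it.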

[2] = test system: BDF1 mice, P388 leukemia ip, median survival T/C; assay: as above; conditions: endpoint: median survival time, higher = longer survival
Outline: as §1

**Q.** What does the source list for COc1cc2cnccc2cc1OCc1ccccc1?
**A.** T/C ([1]; dose: 6.25 mg/kg/injection): 95 % of control; T/C ([1]; dose: 12.5 mg/kg/injection): 100 % of control; T/C ([1]; dose: 25.0 mg/kg/injection): 106 % of control; T/C ([1]; dose: 50.0 mg/kg/injection): 108 % of control; T/C ([1]; dose: 100.0 mg/kg/injection): 90 % of control; T/C ([1]; dose: 200.0 mg/kg/injection): 100 % of control

**Q.** How did the T/C ([2]; dose: 100.0 mg/kg/injection, schedule: Q01DX001 (ip), vehicle: Klucel (hydroxypropylcellulose) (HPC)) turn out when O=C(O)CCSCCC(=O)O was run?
**A.** 104 % of control

**Q.** And the T/C ([2]; dose: 100.0 mg/kg/injection, schedule: Q04DX003 (ip), vehicle: Klucel (hydroxypropylcellulose) (HPC))?
**A.** 104 % of control

**Q.** And the T/C ([2]; dose: 200.0 mg/kg/injection, schedule: Q01DX001 (ip), vehicle: Klucel (hydroxypropylcellulose) (HPC))?
**A.** 108 % of control

**Q.** And the T/C ([2]; dose: 200.0 mg/kg/injection, schedule: Q04DX003 (ip), vehicle: Klucel (hydroxypropylcellulose) (HPC))?
**A.** 100 % of control

**Q.** What about the T/C ([2]; dose: 400.0 mg/kg/injection, schedule: Q01DX001 (ip), vehicle: Klucel (hydroxypropylcellulose) (HPC)) of the same compound?
**A.** 116 % of control

**Q.** And the T/C ([2]; dose: 400.0 mg/kg/injection, schedule: Q04DX003 (ip), vehicle: Klucel (hydroxypropylcellulose) (HPC))?
**A.** 113 % of control

**Q.** With CC(=O)NC(CO)(CO)CO as the compound, how does the T/C ([2]; dose: 100.0 mg/kg/injection, schedule: Q01DX001 (ip), vehicle: saline) read?
**A.** 100 % of control

**Q.** And the T/C ([2]; dose: 200.0 mg/kg/injection, schedule: Q01DX001 (ip), vehicle: saline)?
**A.** 95 % of control

**Q.** With Cc1cnn(O)c(=NCCCl)n1 as the compound, how does the T/C ([2]; dose: 100.0 mg/kg/injection, schedule: Q04DX002 (ip), vehicle: saline with Tween-80) read?
**A.** 99 % of control

**Q.** And the T/C ([2]; dose: 200.0 mg/kg/injection, schedule: Q04DX002 (ip), vehicle: saline with Tween-80)?
**A.** 99 % of control

**Q.** And the T/C ([2]; dose: 400.0 mg/kg/injection, schedule: Q04DX002 (ip), vehicle: saline with Tween-80)?
**A.** 99 % of control

**Q.** For C1CC2CCCC3CC(B4OCCO4)CC(C1)C23 (stereo not given) (tested in a mixture with another compound), which T/C ([2]; dose: 100.0 mg/kg/injection, schedule: Q04DX003 (ip), vehicle: other) is on record?
**A.** 120 % of control

**Q.** What about the T/C ([2]; dose: 200.0 mg/kg/injection, schedule: Q04DX003 (ip), vehicle: other) of the same compound?
**A.** 100 % of control

**Q.** And the T/C ([2]; dose: 400.0 mg/kg/injection, schedule: Q04DX003 (ip), vehicle: other)?
**A.** 100 % of control

**Q.** CC(NSc1ccccc1[N+](=O)[O-])C(=O)O (stereo not given) was tested. Which T/C ([2]; dose: 50.0 mg/kg/injection, schedule: Q01DX009 (ip), vehicle: saline with Tween-80) did it give?
**A.** 98 % of control

**Q.** And the T/C ([2]; dose: 100.0 mg/kg/injection, schedule: Q01DX009 (ip), vehicle: saline with Tween-80)?
**A.** 113 % of control

**Q.** Which results are given for O=C(Nc1ccc(C2=NCCCN2)cc1)Nc1cccc(C(=O)Nc2ccc(C3=NCCCN3)cc2)c1?
**A.** T/C ([2]; dose: 16.5 mg/kg/injection, schedule: Q01DX009 (ip), vehicle: saline with Tween-80): 200 % of control; T/C ([2]; dose: 25.0 mg/kg/injection, schedule: Q01DX009 (ip), vehicle: saline with Tween-80): 272 % of control

**Q.** What does the source list for COc1ccc(C(=O)CCCCl)cc1?
**A.** T/C ([2]; dose: 100.0 mg/kg/injection, schedule: Q01DX009 (ip), vehicle: Klucel (hydroxypropylcellulose) (HPC)): 100 % of control; T/C ([2]; dose: 200.0 mg/kg/injection, schedule: Q01DX009 (ip), vehicle: Klucel (hydroxypropylcellulose) (HPC)): 110 % of control; T/C ([2]; dose: 400.0 mg/kg/injection, schedule: Q01DX009 (ip), vehicle: Klucel (hydroxypropylcellulose) (HPC)): 95 % of control

**Q.** For CCCCCCCCCCCc1n(Cc2ccccc2)cc[n+]1C, which T/C ([2]; dose: 0.75 mg/kg/injection, schedule: Q01DX009 (ip), vehicle: saline) is on record?
**A.** 117 % of control

**Q.** And the T/C ([2]; dose: 1.5 mg/kg/injection, schedule: Q01DX009 (ip), vehicle: saline)?
**A.** 114 % of control

**Q.** And the T/C ([2]; dose: 1.5 mg/kg/injection, schedule: Q04DX003 (ip), vehicle: saline)?
**A.** 100 % of control

**Q.** And the T/C ([2]; dose: 3.0 mg/kg/injection, schedule: Q01DX009 (ip), vehicle: saline)?
**A.** 114 % of control

**Q.** And the T/C ([2]; dose: 3.0 mg/kg/injection, schedule: Q04DX003 (ip), vehicle: saline)?
**A.** 115 % of control

**Q.** With COC(=O)C12N=NN(c3ccccc3)C1(C(=O)OC)C1CCC2C1 (stereo not given) as the compound, how does the T/C ([2]; dose: 100.0 mg/kg/injection, schedule: Q04DX003 (ip), vehicle: saline with Tween-80) read?
**A.** 100 % of control

**Q.** What about the T/C ([2]; dose: 200.0 mg/kg/injection, schedule: Q04DX003 (ip), vehicle: saline with Tween-80) of the same compound?
**A.** 100 % of control

**Q.** What about the T/C ([2]; dose: 400.0 mg/kg/injection, schedule: Q04DX003 (ip), vehicle: saline with Tween-80) of the same compound?
**A.** 91 % of control
